# From paper PMC2784364, “VX-166: a novel potent small molecule caspase inhibitor as a potential therapy for sepsis” (Critical Care, 2009)
# Read-outs that look alike come from different tables or passages of the source.
# Key:
# [1] = molecular target: T1, caspase-3 (Homo sapiens, UniProt P42574); assay: Caspase inhibition assay, second-order inactivation rate; type: biochemical
# T1 construct: Active recombinant caspase-1, -3, -4, -7 and -8 were prepared as described previously; made in house
# Procedure: (§1) Active recombinant caspase-1, -3, -4, -7 and -8 were prepared as described previously. Caspase-2 was purchased from Biomol (Exeter, UK), caspase-6 from BD Biosciences (Oxford, UK), caspase-9 from Europa Bioproducts Ltd. (Cambridge, UK) and caspase-10 from Chemicon International Inc. (Harrow, UK). Cathepsin B and granzyme B were purchased from Merck Biosciences Ltd. (Nottingham, UK). Fluorogenic protease substrates were purchased from Bachem Ltd. (St. Helens, UK). All reactions were carried out at 37°C using a Molecular Devices (Wokingham, UK) Gemini plate-reader at 460 nm (excitation wavelength of 390 nm). Caspase inhibition assays were conducted, with minor modifications, as described by Margolin and colleagues. Irreversible kinetics were analysed by calculations of second-order inactivation rate constants (k) using GraphPad (La Jolla, CA, USA) Prism 4.0 software. A larger number for an inactivation rate constant indicates a greater degree of inactivation. To determine the inhibitory effect on cathepsin B, 4.25 nM of the enzyme were added to 250 μM z-RR-AMC in 10 mM 2-morpholino-ethanesulfonic acid pH 6.0, 1 mM DTT, 1 mM EDTA and 0.03% Brij35 in the presence or absence of VX-166 and the reaction monitored continuously over 15 minutes. Granzyme B was assayed, with minor modifications, as described by Thornberry and colleagues. Additional counterscreening against a panel of 83 additional enzymes, ion channels and receptors was carried out at MDS Pharma Services (Bothell, WA, USA).
# [2] = molecular target: T2, caspase-9 (Homo sapiens, UniProt P55211); assay: as above; type: biochemical; conditions: recombinant caspase-9, 37°C, n = 4; read-out: Second order inactivation rate constant K
# T2 construct: purchased Europa Bioproducts Ltd. (Cambridge, UK)
# T2 sequence (P55211 whole entry): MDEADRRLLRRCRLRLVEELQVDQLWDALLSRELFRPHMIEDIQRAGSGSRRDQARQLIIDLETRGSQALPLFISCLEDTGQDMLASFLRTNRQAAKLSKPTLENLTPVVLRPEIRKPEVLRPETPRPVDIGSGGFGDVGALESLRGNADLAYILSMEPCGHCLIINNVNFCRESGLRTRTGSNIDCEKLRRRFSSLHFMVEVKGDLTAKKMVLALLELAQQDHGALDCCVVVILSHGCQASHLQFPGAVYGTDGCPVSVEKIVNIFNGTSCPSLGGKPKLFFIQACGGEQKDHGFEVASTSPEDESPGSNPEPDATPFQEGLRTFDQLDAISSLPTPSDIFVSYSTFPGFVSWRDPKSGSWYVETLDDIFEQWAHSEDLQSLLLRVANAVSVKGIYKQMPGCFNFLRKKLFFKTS
# Procedure: as §1
# [3] = system: Jurkat cells; assay: TNF-α/cycloheximide induced apoptosis in Jurkat cells, Annexin V; type: cell-based; conditions: Human Jurkat cell line/Annexin V, n = 4, read-out: IC50, inhibition of apoptosis
# Procedure: Jurkat cells were obtained from LGC Standards (Teddington, UK) and were grown in RPMI 1640, 10% FCS, 2 mM L-glutamine, 100 U/ml penicillin and 0.1 mg/ml streptomycin (all from Sigma Aldrich Ltd., Poole, UK) at 37°C in 5% CO2/95% humidity. Receptor- or stress-mediated apoptosis (2 × 10^5 cells/ml) was induced by addition of either anti-Fas antibody CH-11 (10 ng/ml, Millipore UK Ltd., Watford, UK), TNF-α (20 ng/ml, R&D Systems, Abingdon, UK) with cycloheximide (112 ng/ml, Sigma Aldrich Ltd., Poole, UK) or staurosporine (350 ng/ml, Sigma Aldrich Ltd., Poole, UK). VX-166 was diluted into DMSO (10 mM), further diluted in media and added at a range of concentrations. Cells were then incubated for 18 hours. Apoptotic cells were then labelled with Cy5-conjugated Annexin-V (BD Biosciences, Oxford, UK) and detected using a FMAT™ 8100 Fluorimetric Microassay Technology Reader (Applied Biosystems, Warrington, UK). For the experiments using anti-Fas antibody, apoptosis was additionally measured using a Cell Death Detection ELISA kit (Roche Diagnostics Ltd., Lewes, UK) following the manufacturer's instructions.
# [4] = system: IL-1β release from peripheral blood mononuclear cells; assay: IL-1β release from LPS-treated PBMC; type: cell-based
# Procedure: Peripheral blood mononuclear cells (PBMC) from healthy donors were isolated by Ficoll-Paque gradient centrifugation from buffy coats obtained from the National Blood Transfusion Service (Bristol, UK). For IL-1β release, 5 × 10^5 cells/ml were then stimulated with 50 ng/ml lipopolysaccharide (LPS) from Escherichia coli (Sigma-Aldrich Ltd., Poole, UK) in the presence or absence of VX-166 and incubated for 18 hours. Secretion of IL-1β into the supernatant was determined by ELISA (R&D Systems, Abingdon, UK) following the manufacturer's instructions. For IL-18 release, 7.5 × 10^5 cells/ml were stimulated with 6.25 × 10^-4% (w/v) Staphylococcus aureus cell suspension (SAC; Sigma-Aldrich Ltd., Poole, UK) in the presence or absence of VX-166 and incubated overnight. The IL-18 content in the supernatants was quantified by ELISA (Caltag-MedSystems Ltd., Buckingham, UK) following the manufacturer's instructions. In both assays PBMC viability was assessed after the 18 hours incubation time using MTS assay (Promega UK Ltd., Southampton, UK) to ensure that the reduction in cytokine release was not caused by a cytotoxic effect of the compound.
# [5] = system: Sprague-Dawley rats; assay: CLP rat, thymus weight; type: in vivo; conditions: 25 mg/ml pump, P < 0.01
# Procedure: CLP studies were performed in accordance with the National Institutes of Health guidelines for the use of experimental animals and were approved by the Institutional Animal Care and Use Committee of the Feinstein Institute for Medical Research. Adult male Sprague-Dawley rats (weighing 275 to 325 g, Charles River Laboratories, Wilmington, MA, USA) were fasted overnight then anaesthetised with isoflurane. The caecum was exposed via a 2 cm midline incision. It was ligated just distal to the ileocaecal valve, then punctured twice with an 18-gauge needle and gently squeezed to release a small amount of faecal material to ensure patency of the perforation sites before the abdominal incision was closed. Sham-operated rats underwent the same procedure with the exception that the caecum was neither ligated nor punctured. Animals received subcutaneous fluids (30 ml/kg saline) immediately after the procedure. No antibiotics were administered. In the 7 and 10 day survival studies animals were re-anaesthetised 20 hours after CLP, the perforated caecum was removed and the abdominal cavity washed twice with 40 ml of warm, sterilised saline. The abdominal cavity was closed, anaesthetics withdrawn and rats returned to their cages where they were allowed free access to food and water. In the 20 hour endpoint study the caecum was not removed. […]
# T1 sequence (P42574 29-175 limits assumed): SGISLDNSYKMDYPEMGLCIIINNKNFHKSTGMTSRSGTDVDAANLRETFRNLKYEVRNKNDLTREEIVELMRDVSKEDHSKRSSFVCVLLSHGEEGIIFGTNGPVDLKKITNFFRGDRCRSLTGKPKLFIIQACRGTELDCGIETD
# T1 sequence (P42574 176-277 limits assumed): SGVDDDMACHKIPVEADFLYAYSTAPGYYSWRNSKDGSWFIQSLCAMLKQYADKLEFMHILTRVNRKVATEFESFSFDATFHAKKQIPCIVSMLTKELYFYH
compound,measurement,setting,value
CCC(C(=O)NC(CC(=O)O)C(=O)COc1c(F)c(F)cc(F)c1F)n1cccc(NC(=O)OC)c1=O (stereo not shown) [VX-166],kinact/KI,"[1]; caspase-3, text, read-out: second order inactivation rate constant (k)",> 1e+06 M⁻¹ s⁻¹
same,kinact/KI,[1]; read-out: Second order inactivation rate constant K,1.17e+06 ± 183000 M⁻¹ s⁻¹
same,kinact/KI,[2],131000 ± 21000 M⁻¹ s⁻¹
same,IC50,[3],120 ± 50 nM
same,IC50,"[4]; Homo sapiens, PBMC, 18 h, n = 4, read-out: IC50 ± SD, inhibition of IL-1β release",< 500 nM
same,IC50,"[4]; LPS-treated human PBMC, 18 hours, n = 4, read-out: IC50 ± SD, inhibition of IL-1β release",260 ± 120 nM
same,thymus weight of surviving rats on day 10 vs control,[5],significantly higher weight
